From publication PMC7618036, “An oral heme oxygenase inhibitor targets immunosuppressive perivascular macrophages in preclinical models of cancer” (Science translational medicine, 2025)

System: CD8^+ T-cells in MMTV-PyMT tumors
Assay: Flow cytometry of the TME of MMTV-PyMT tumors after 36 h treatment
Type: in vivo, mouse
Settings: single-agent therapy
Protocol: At 36 h post treatment initiation of treatment mice were sacrificed and tumors were harvested and analyzed. (A) Schematic representing the dosing strategy. (B) The fold change of tumor growth over 36 h post initiation of treatment. (C-G) Tumors were enzyme-digested to release single cells which were analyzed for their live (7AAD^-) stromal cell composition using flow cytometry (n=5 tumors per group) (C) and CD8^+ T-cells (D). Gating strategy (left panel) and quantitation of CD8^+ T-cell subsets based on CD62L and CD44 expressions (right panel; TCM; T central memory cells, TEM; T effector memory cells, Teff; T effectors cells) (E), and the ability of the tumoral CD8^+ T-cells to secrete IFNγ post ex vivo exposure to PMA/ionomycin treatment (F). […] Scale bar is 100 µm and white arrows indicate infiltrating CD8^+ T-cells. […] Image in panel (A) was created using BioRender. Bar charts show the mean, error bars SD, and the dots show individual data points from individual tumors and mice. Gemc.; gemcitabine. * P<0.05, ** P<0.01, *** P<0.001.
MN-MCA1 sarcoma cells were orthotopically implanted into syngeneic C57Bl/6 mice for tumors. A total of 2.5 x 10^5 cells in 100 μL RPMI were injected subcutaneously into female mice. […] When tumors became palpable, volumes were measured every 2-4 days using digital caliper measurements of the long (L) and short (S) dimensions of the tumor. […]

O=c1[nH]cc(F)c(=O)[nH]1 [5-FU, 5-fluorouracil]
abundance of CD8^+ T-cells in the TME: increase in the abundance of CD8^+ T-cells
